Data taken from patent US20230091047A1 (priority 2019, published 2023).

How the values were obtained:
[1] = tested on: HBV (HepG2.117 cell line, inducibly HBV producing); assay: Anti-HBV activity: intracellular HBV DNA by real-time PCR in HepG2.117 cells after 3 days of treatment; assay type: cell-based, hepatitis B virus; settings: Hepatitis B virus, HepG2.117, 72 h, HepG2.117 cells, intracellular HBV DNA by real-time PCR, 3 days of treatment, mean value; read-out: EC50 (μM, mean value)
Procedure, shortened: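 HepG2.117 cells (Tet-off, inducible HBV production) were induced to replicate HBV by doxycycline absence, then treated with serially diluted compound for 3 days. Activity was quantified as intracellular HBV DNA by real-time PCR using an HBV-specific primer set and probe.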

in vitro = assay type: cell-based; settings: human, HepG2 or HepG2.117 cells, ATPlite, 3-days incubation (not marked with *), mean value
Procedure, shortened: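 Luminescent ATP quantitation served as the viability endpoint following a 3- or 4-day incubation with test compounds.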

| SMILES | EC50 [1] [µM] | CC50 at 3 days (in vitro) [µM] |
| --- | --- | --- |
| CC(C)Nc1nc2c(c(=O)n1-c1ccc(-n3cncn3)cc1)C[C@@H](C)N(C(=O)c1ccc(Cl)c(Cl)c1)C2 [Compound C611] | 0.17 | > 50 |
| CNc1noc2cc(-n3c(N[C@@H](C)c4ccc(C(F)(F)F)cc4)nc4c(c3=O)C[C@@H](C)N(C(=O)c3ccc(Cl)c(Cl)c3)C4)ccc12 [Compound C612, (R)-7-(3,4-dichlorobenzoyl)-6-methyl-3-(3-(methylamino)-benzo[d]isoxazol-6-yl)-2-(((S)-1-(4-(trifluoromethyl)phenyl)ethyl)amino)-5,6,7,8-tetrahydropyrido[3,4-d]pyrimidin-4(3H)-one] | 0.14 | > 50 |
| CNC(=O)c1cnc(-n2c(N[C@@H](C)c3ccc(F)cc3)nc3c(c2=O)C[C@@H](C)N(C(=O)c2ccc(Cl)c(Cl)c2)C3)cn1 [Compound C614] | 0.09 | > 50 |
| CNC(=O)c1cnc(-n2c(N[C@@H](C)c3ccc(C(F)(F)F)cc3)nc3c(c2=O)C[C@@H](C)N(C(=O)c2ccc(Cl)c(Cl)c2)C3)cn1 [Compound C615] | 0.13 | > 50 |
| CNc1noc2cc(-n3c(N[C@@H](C)c4ccc(OC(F)(F)F)cc4)nc4c(c3=O)C[C@@H](C)N(C(=O)c3ccc(Cl)c(Cl)c3)C4)ccc12 [Compound C616] | 0.19 | > 50 |
| CNC(=O)c1cc(-n2c(N[C@@H](C)c3ccc(OC(F)(F)F)cc3)nc3c(c2=O)C[C@@H](C)N(C(=O)c2ccc(Cl)c(Cl)c2)C3)n(C)n1 [Compound C618] | 0.09 | > 45 |
| CNC(=O)c1ncc(-n2c(N[C@@H](C)c3ccc(OC(F)(F)F)cc3)nc3c(c2=O)C[C@@H](C)N(C(=O)c2ccc(Cl)c(Cl)c2)C3)n1C [Compound C620] | 0.17 | > 50 |
| CNC(=O)c1ccc(-n2c(N[C@H]3C[C@H]4CC[C@]3(C)C4(C)C)nc3c(c2=O)C[C@@H](C)N(C(=O)c2ccc(Cl)c(Cl)c2)C3)cc1 [Compound C621] | > 2.5 | 5.99 |
| CNC(=O)c1cc(-n2c(N[C@@H](C)c3ccc(OC(F)(F)F)cc3)nc3c(c2=O)C[C@@H](C)N(C(=O)c2ccc(Cl)c(Cl)c2)C3)nn1C [Compound C622] | 0.07 | > 50 |
| CNC(=O)c1cc(-n2c(N[C@@H](C)c3ccc(C(F)(F)F)cc3)nc3c(c2=O)C[C@@H](C)N(C(=O)c2ccc(Cl)c(Cl)c2)C3)nn1C [Compound C623] | 0.04 | > 50 |
| CNC(=O)c1cc(-n2c(N[C@@H](C)c3ccc(F)cc3)nc3c(c2=O)C[C@@H](C)N(C(=O)c2ccc(Cl)c(Cl)c2)C3)nn1C [Compound C624] | 0.06 | > 50 |
| CCN(CC)c1nc2c(c(=O)n1-c1ccc(C(=O)NC)nc1)C[C@@H](C)N(C(=O)c1ccc(Cl)c(Cl)c1)C2 [Compound C625] | 0.18 | > 50 |
| CNC(=O)c1ncc(-n2c(O)nc3c(c2=O)C[C@@H](C)N(C(=O)c2ccc(Cl)c(Cl)c2)C3)n1C [Compound C626, R-5-(7-(3,4-dichlorobenzoyl)-2-hydroxy-6-methyl-4-oxo-5,6,7,8-tetrahydropyrido[3,4-d]pyrimidin-3(4H)-yl)-N,1-dimethyl-1H-imidazole-2-carboxamide] | > 2.5 | > 50 |
| CNc1[nH]nc2cc(-n3c(NC(C)C)nc4c(c3=O)C[C@@H](C)N(C(=O)c3ccc(Cl)c(Cl)c3)C4)ccc12 [Compound C627] | 0.12 | 33.6 |
| CNC(=O)c1ccc(-n2c(N[C@@H](C)c3ccc(C(F)(F)F)cc3)nc3c(c2=O)C[C@@H](C)N(C(=O)c2ccc(Cl)c(C(F)F)c2)C3)cc1 [Compound C628] | 0.05 | 23.2 |
| CNC(=O)c1cc(-n2c(N[C@@H](C)c3ccc(C(F)(F)F)cc3)nc3c(c2=O)C[C@@H](C)N(C(=O)c2ccc(Cl)c(Cl)c2)C3)[nH]n1 [Compound C630] | 0.11 | 20.7 |
| CNC(=O)[C@H]1CC[C@H](n2c(N[C@@H](C)c3ccc(OC(F)(F)F)cc3)nc3c(c2=O)C[C@@H](C)N(C(=O)c2ccc(Cl)c(Cl)c2)C3)CC1 [Compound C632] | 0.12 | 6.2 |
| CNC(=O)c1ccc(-n2c(NC(C)C)nc3c(c2=O)C[C@@H](C)N(C(=O)c2ccc(F)c(C(F)F)c2)C3)cc1 [Compound C634] | 0.63 | > 50 |
| CNC(=O)c1ccc(-n2c(NC(C)C)nc3c(c2=O)C[C@@H](C)N(C(=O)c2ccc(Cl)c(OC(F)(F)F)c2)C3)cc1 [Compound C635] | 0.07 | > 50 |
| CNC(=O)c1noc2cc(-n3c(NC(C)C)nc4c(c3=O)C[C@@H](C)N(C(=O)c3ccc(Cl)c(Cl)c3)C4)ccc12 [Compound C638] | 0.14 | > 50 |
| CNC(=O)[C@H]1CC[C@H](n2c(N[C@@H](C)c3ccc(C(F)(F)F)cc3)nc3c(c2=O)C[C@@H](C)N(C(=O)c2ccc(Cl)c(Cl)c2)C3)CC1 [Compound C640] | 0.07 | 5.2 |
| CNC(=O)c1ccc(-n2c(NC(C)C)nc3c(c2=O)C[C@@H](C)N(C(=O)c2ccc(F)c(C#N)c2)C3)cc1 [Compound C641] | 1.99 | > 50 |
